Source: patent US10689331B2, “IDO inhibitors” (Bristol-Myers Squibb Company, priority 2015, dated 2020)

Target: T1, human IDO1 (Homo sapiens, UniProt P14902)
T1 construct: expressed in transfected cells
Experiment: HEK Human IDO-1 inhibition assay (kynurenine readout, Ehrlich reagent, absorbance 490 nm)
Format: cell-based
Conditions: human IDO1/HEK293 cells, incubated 20 hours with compound; 500 nM reference standard = 100% inhibition
Description: HEK293 cells were transfected with a pCDNA-based mammalian expression vector harboring human IDO1 cDNA (NM 002164.2) by electroporation. They were cultured in medium (DMEM with 10% FBS) containing 1 mg/ml G418 for two weeks. Clones of HEK293 cells that stably expressed human IDO1 protein were selected and expanded for IDO inhibition assay.
The human IDO1/HEK293 cells were seeded at 10,000 cells per 50 uL per well with RPMI/phenol red free media contains 10% FBS in a 384-well black wall clear bottom tissue culture plate (Matrix Technologies LLC) 100 nL of certain concentration of compound was then added to each well using ECHO liquid handling systems. The cells were incubated for 20 hours in 37° C. incubator with 5% CO2.
The compound treatments were stopped by adding Trichloroacetic Acid (Sigma-Aldrich) to a final concentration at 0.2%. The cell plate was further incubated at 50° C. for 30 minute. The equal volume supernatant (20 uL) and 0.2% (w/v) Ehrlich reagent (4-dimethylaminobenzaldehyde, Sigma-Aldrich) in glacial acetic acid were mixed in a new clear bottom 384-well plate. This plate was then incubated at room temperature for 30 minute. The absorbance at 490 nm was measured on Envision plate reader. Compound IC50 values were calculated using the counts of 500 nM of a reference standard treatment as one hundred percent inhibition, and counts of no compound but DMSO treatment as zero percent inhibition.

T1 sequence (P14902 whole entry): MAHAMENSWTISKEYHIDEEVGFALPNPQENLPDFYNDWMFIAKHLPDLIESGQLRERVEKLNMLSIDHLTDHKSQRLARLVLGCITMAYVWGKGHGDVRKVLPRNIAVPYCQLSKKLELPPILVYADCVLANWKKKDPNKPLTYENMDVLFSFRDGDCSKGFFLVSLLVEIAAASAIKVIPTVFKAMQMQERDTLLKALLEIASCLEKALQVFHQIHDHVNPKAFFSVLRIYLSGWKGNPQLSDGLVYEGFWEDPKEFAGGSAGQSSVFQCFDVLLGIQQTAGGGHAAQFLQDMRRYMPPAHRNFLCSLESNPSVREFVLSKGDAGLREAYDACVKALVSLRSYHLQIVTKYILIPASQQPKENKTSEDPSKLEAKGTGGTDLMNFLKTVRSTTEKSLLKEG

IC50 | Compound
< 100 nM | Cc1ccc(NC(=O)Nc2cc(OCc3nnn[nH]3)c(F)cc2N(CC(C)C)CC(C)C)cc1 [Example 95, 1-(5-((1H-tetrazol-5-yl)methoxy)-2-(diisobutylamino)-4-fluorophenyl)-3-(p-tolyl)urea]
< 100 nM | C=C(C)CN(c1ccc(OC(C)C(=O)O)cc1NC(=O)Nc1ccc(Cl)cc1F)C1CCOCC1 (stereo not drawn) [Example 138, 2-(3-(3-(4-chloro-2-fluorophenyl)ureido)-4-((2-methylallyl)(tetrahydro-2H-pyran-4-yl)amino)phenoxy)propanoic acid]
≥ 100 nM | COC1CCC(N(CC(C)C)c2ccc(OCC(=O)O)cc2NC(=O)Nc2ccc(Cl)cc2F)CC1 (stereo not drawn) [Example 152, 2-(3-(3-(4-chloro-2-fluorophenyl)ureido)-4-(isobutyl(0-4-methoxycyclohexyl)amino)phenoxy)acetic acid]
< 5 nM | CCOC(=O)COc1ccc(N(CC(C)C)C2CCCCC2)c(NC(=O)Nc2ccc(Cl)cc2F)c1 [Example 42, ethyl 2-(3-(3-(4-chloro-2-fluorophenyl)ureido)-4-(cyclohexyl(isobutyl)amino)phenoxy)acetate]
≥ 100 nM | CC(C)CN(c1ccc(OCC(=O)O)cc1NC(=O)Nc1nnc(C(F)(F)F)s1)C1CCCCC1 [Example 8, 2-(4-(cyclohexyl(isobutyl)amino)-3-(3-(5-(trifluoromethyl)-1,3,4-thiadiazol-2-yl)ureido)phenoxy) acetic acid]
≥ 100 nM | CC(C)CN(c1ccc(OCC(=O)O)cc1NC(=O)Nc1cccnc1)C1CCCCC1 [Example 3, 2-(4-(cyclohexyl(isobutyl)amino)-3-(3-(pyridin-3-yl)ureido)phenoxy)acetic acid]
< 100 nM | CC(C)CN(c1ccc(OC(C)C(=O)O)cc1NC(=O)Nc1ccc(C#N)cc1)C1CCCCC1 (single isomer, unassigned) [Example 66-1, 2-(3-(3-(4-cyanophenyl)ureido)-4-(cyclohexyl(isobutyl)amino)phenoxy)propanoic acid]
≥ 100 nM | CC(C)CN(c1ccc(OCC(=O)O)c(F)c1NC(=O)Nc1ccc(Cl)cc1F)C1CCCCC1 [Example 107, 2-(3-(3-(4-chloro-2-fluorophenyl)ureido)-4-(cyclohexyl(isobutyl)amino)-2-fluorophenoxy)acetic acid]
≥ 100 nM | CCCN(Cc1ccccc1)c1ccc(OCC(=O)O)cc1NC(=O)Cc1ccc(C)cc1 [Example 166, 2-(4-(benzyl(propyl)amino)-3-(2-(p-tolyl)acetamido)phenoxy)acetic acid]
< 5 nM | Cc1ccc(NC(=O)Nc2cc(OCC(=O)O)ccc2N(CC(C)C)C2CCCCC2)c(F)c1 [Example 23, 2-(4-(cyclohexyl(isobutyl)amino)-3-(3-(2-fluoro-4-methylphenyl)ureido)phenoxy) acetic acid]
< 5 nM | CC(C)CN(c1ccc(OCC(=O)O)cc1NC(=O)Nc1ccc(C#N)cc1F)C1CCCCC1 [Example 43, 2-(3-(3-(4-cyano-2-fluorophenyl)ureido)-4-(cyclohexyl(isobutyl)amino)phenoxy)acetic acid]
≥ 100 nM | CCOc1ccc(NC(=O)Nc2cc(OCC(=O)O)ccc2N(CC(C)C)C2CCC(F)(F)CC2)cc1 [Example 100, 2-(4-((4,4-Difluorocyclohexyl)(isobutyl)amino)-3-(3-(4-ethoxyphenyl)ureido)phenoxy)acetic acid]
< 5 nM | CC(C)CN(c1ccc(OCC(=O)NS(=O)(=O)C2CC2)cc1NC(=O)Nc1ccc(Cl)cc1F)C1CCCCC1 [Example 47, 2-(3-(3-(4-chloro-2-fluorophenyl)ureido)-4-(cyclohexyl (isobutyl)amino)phenoxy)-N-(cyclopropyl-sulfonyl)acetamide]
≥ 100 nM | CCCN(Cc1ccccc1)c1ccc(OCC(=O)O)cc1NC(=O)Nc1ccc(C(F)(F)F)cc1 [Example 162, 2-(4-(benzyl(propyl)amino)-3-(3-(4-(trifluoromethyl)phenyl)ureido)phenoxy)acetic acid]
≥ 100 nM | CC(C)CN(c1ccc(OCC(=O)O)cc1NC(=O)Nc1ccc(OCc2ccccc2)cc1)C1CCCCC1 [Example 15, 2-(3-(3-(4-(benzyloxy)phenyl)ureido)-4-(cyclohexyl(isobutyl)amino)phenoxy)acetic acid]
< 100 nM | CC(C)CN(c1cc(F)c(OCC(=O)O)cc1NC(=O)Nc1ccccc1F)C1CCCCC1 [Example 129]
≥ 100 nM | Cc1ccc(NC(=O)Nc2cc(OCC(=O)O)c(Cl)cc2N(CC(C)C)C2CCCCC2)cc1 [Example 122, 2-(2-chloro-4-(cyclohexyl(isobutyl)amino)-5-(3-(p-tolyl)ureido)phenoxy)acetic acid]
≥ 100 nM | Cc1cc(NC(=O)Nc2cc(OCC(=O)NS(=O)(=O)C3CC3)ccc2N(CC(C)C)C2CCCCC2)no1 [Example 50, 2-(4-(cyclohexyl(isobutyl)amino)-3-(3-(5-methyl-isoxazol-3-yl)ureido)phenoxy)-N-(cyclopropylsulfonyl)acetamide]
< 5 nM | Cc1ccc(NC(=O)Nc2cc(OC(C)C(=O)O)ccc2N(CC(C)C)C2CCCCC2)c(F)c1 (racemic) [racemic 65]
< 5 nM | CCCC(Oc1ccc(N(CC(C)C)C2CCCCC2)c(NC(=O)Nc2ccc(C)cc2)c1)C(=O)O (single isomer, unassigned) [Example 86-2, 2-(4-(cyclohexyl(isobutyl)amino)-3-(3-(p-tolyl)ureido)phenoxy)pentanoic acid]
< 100 nM | COCC(Oc1ccc(N(CC(C)C)C2CCCCC2)c(NC(=O)Nc2ccc(Cl)cc2F)c1)C(=O)O (single isomer, unassigned) [Example 89-2, 2-(3-(3-(4-chloro-2-fluorophenyl)ureido)-4-(cyclohexyl(isobutyl)amino)phenoxy)-3-methoxypropanoic acid]
≥ 100 nM | CC(C)CN(c1ccc(OCC(=O)Nc2nccs2)cc1NC(=O)Nc1ccc(Cl)cc1F)C1CCCCC1 [Example 155, 2-(3-(3-(4-chloro-2-fluorophenyl)ureido)-4-(cyclohexyl(isobutyl)amino)phenoxy)-N-(thiazol-2-yl)acetamide]
< 100 nM | CC(C)CN(c1ccc(OCc2ncco2)cc1NC(=O)Nc1ccc(Cl)cc1F)C1CCCCC1 [Example 156, 1-(4-chloro-2-fluorophenyl)-3-(2-(cyclohexyl(isobutyl)amino)-5-(oxazol-2-ylmethoxy)phenyl)urea]
< 100 nM | C=C(C)CN(c1ccc(OC(C)C(=O)O)cc1NC(=O)Nc1ccc(Cl)cc1F)C1CCOCC1 (single isomer, unassigned) [Example 139-1, 2-(3-(3-(4-chloro-2-fluorophenyl)ureido)-4-((2-methylallyl)(tetrahydro-2H-pyran-4-yl)amino)phenoxy)propanoic acid]
< 5 nM | Cc1ccc(NC(=O)Nc2cc(OC(C)(C)C(=O)O)ccc2N(CC(C)C)C2CCCCC2)cc1 [Example 92, 2-(4-(cyclohexyl(isobutyl)amino)-3-(3-(p-tolyl)ureido)phenoxy)-2-methylpropanoic acid]
< 100 nM | CC(C)CN(c1cc(Cl)c(OCC(=O)O)cc1NC(=O)Nc1ccc(Cl)cc1F)C1CCCCC1 [Example 119, 2-(2-chloro-5-(3-(4-chloro-2-fluorophenyl)ureido)-4-(cyclohexyl(isobutyl)amino)phenoxy)acetic acid]
< 5 nM | CC(C)CN(c1ccc(OC(C)C(=O)O)cc1NC(=O)Nc1ccccc1F)C1CCCCC1 (single isomer, unassigned) [Example 59-1, 2-(4-(cyclohexyl(isobutyl)amino)-3-(3-(2-fluoro-phenyl)ureido)phenoxy)propanoic acid]
